# Reference: patent publication US20160152679A1, “RELAXIN-LIKE COMPOUNDS AND USES THEREOF” (ANGION BIOMEDICA CORP., priority 2012, published 2016)
# Test system: parental HEK-293T cells
# Assay: cAMP-Glo assay in parental HEK-293T cells lacking RXFP1
# Format: cell-based
# Conditions: parental HEK-293T cells (lack RXFP1); relaxin 10 ng/mL or compound 10 µg/mL; 30 or 60 min
substance,measurement,value
relaxin,cAMP response in parental cells,no cAMP response
